How the values were obtained:
Settings in all cases: 72 h
Calu-3 [1] = test: drug sensitivity score (DSS) for viability; higher = more toxic; extreme values may be limits of the assay
HepG2 [2] = test: as above
U2OS [3] = test: as above
Caco-2 [4] = test: as above
Vero E6 [5] = test: as above
Calu-3 [6] = test: relative viability EC50 (midpoint between 100% and the lowest measured viability); higher = less toxic
HepG2 [7] = test: as above
U2OS [8] = test: as above
Caco-2 [9] = test: as above
Vero E6 [10] = test: as above
Calu-3 [11] = test: cell viability relative to DMSO; higher = less toxic
HepG2 [12] = test: as above
U2OS [13] = test: as above
Caco-2 [14] = test: as above
Vero E6 [15] = test: as above

SMILES	drug sensitivity score (Calu-3 [1])	drug sensitivity score (HepG2 [2])	drug sensitivity score (U2OS [3])	drug sensitivity score (Caco-2 [4])	drug sensitivity score (Vero E6 [5])	relative viability EC50 (Calu-3 [6])	relative viability EC50 (HepG2 [7])	relative viability EC50 (U2OS [8])	relative viability EC50 (Caco-2 [9])	relative viability EC50 (Vero E6 [10])	cell viability (Calu-3 [11]; 1 nM)	cell viability (Calu-3 [11]; 10 nM)	cell viability (Calu-3 [11]; 100 nM)	cell viability (Calu-3 [11]; 1000 nM)	cell viability (Calu-3 [11]; 10000 nM)	cell viability (HepG2 [12]; 1 nM)	cell viability (HepG2 [12]; 10 nM)	cell viability (HepG2 [12]; 100 nM)	cell viability (HepG2 [12]; 1000 nM)	cell viability (HepG2 [12]; 10000 nM)	cell viability (U2OS [13]; 1 nM)	cell viability (U2OS [13]; 10 nM)	cell viability (U2OS [13]; 100 nM)	cell viability (U2OS [13]; 1000 nM)	cell viability (U2OS [13]; 10000 nM)	cell viability (Caco-2 [14]; 1 nM)	cell viability (Caco-2 [14]; 10 nM)	cell viability (Caco-2 [14]; 100 nM)	cell viability (Caco-2 [14]; 1000 nM)	cell viability (Caco-2 [14]; 10000 nM)	cell viability (Vero E6 [15]; 1 nM)	cell viability (Vero E6 [15]; 10 nM)	cell viability (Vero E6 [15]; 100 nM)	cell viability (Vero E6 [15]; 1000 nM)	cell viability (Vero E6 [15]; 10000 nM)
C[C@]12CCC(=O)C[C@@H]1CC[C@@H]1[C@@H]2CC[C@]2(C)C=CC[C@@H]12 [androstenone]	0.1	0	0	0	0	> 10 µM	> 10 µM	> 10 µM	> 10 µM	> 10 µM	90.7%	91.1%	99.8%	105%	80.2%	100%	99.4%	92.4%	89.8%	100%	94.5%	99.3%	92.6%	99%	101%	86.6%	104%	93.9%	97.2%	102%	96.8%	97.1%	97.4%	93.4%	102%
CCCn1c(=O)c2[nH]cnc2n(-c2ccc(Cl)cc2)c1=O [arofylline]	0	0	0	0	0	> 10 µM	> 10 µM	> 10 µM	> 10 µM	> 10 µM	97.7%	95.4%	103%	96.8%	92.2%	104%	102%	99.1%	100%	101%	103%	99.1%	102%	96.8%	98.9%	87.3%	97.6%	94.4%	87.9%	95.5%	108%	108%	101%	98.3%	96%
CN1CCN(CCCCN2C(=O)CN(/N=C/c3ccc(-c4ccc(Cl)cc4)o3)C2=O)CC1 [azimilide]	0	0.1	0	0	0	> 10 µM	> 10 µM	> 10 µM	> 10 µM	> 10 µM	86.7%	96.6%	91%	106%	92.1%	99.8%	106%	101%	103%	85.3%	103%	97.1%	99.8%	98.2%	98.5%	97.4%	102%	94.4%	98.7%	94.5%	101%	98.7%	100%	96.9%	98.1%
Cn1c(COc2ccc(CC3SC(=O)NC3=O)cc2)nc2ccccc2c1=O (stereo not given) [balaglitazone]	0.2	0	0	0.1	0	> 10 µM	> 10 µM	> 10 µM	> 10 µM	> 10 µM	95%	95%	103%	103%	84.3%	88.5%	104%	85.7%	100%	99.2%	96.4%	95%	97.3%	91.8%	92%	91.7%	106%	90.7%	96.4%	85.3%	98.2%	94.8%	88.6%	93.4%	101%
CCc1oc2ccccc2c1C(=O)c1cc(Br)c(O)c(Br)c1 [benzbromarone]	0	0	0	1.7	0	> 10 µM	> 10 µM	> 10 µM	> 10 µM	> 10 µM	104%	90.5%	105%	99.4%	107%	109%	101%	96.4%	102%	102%	99.9%	94.8%	102%	102%	105%	101%	93.5%	105%	83.1%	89.9%	103%	108%	104%	105%	99.8%
C[N+]1(C)CCc2cc3c(cc2[C@H]1[C@@H]1OC(=O)c2c1ccc1c2OCO1)OCO3 [bicuculline-methochloride-(-)]	0	0	0	2.5	0	> 10 µM	> 10 µM	> 10 µM	> 10 µM	> 10 µM	89%	104%	85%	88%	110%	101%	98.7%	93.9%	92.8%	108%	95.1%	99.9%	99.2%	98.9%	100%	101%	118%	98%	81.9%	97.3%	98.6%	97%	99.2%	103%	100%
CC(C)NCC(O)COc1ccc(COCCOC(C)C)cc1 (stereo not given) [bisoprolol]	0	0	0	0	0	> 10 µM	> 10 µM	> 10 µM	> 10 µM	> 10 µM	95.5%	103%	108%	97.8%	108%	104%	98.9%	91.2%	103%	90.6%	93.6%	94%	101%	95%	103%	91.3%	95.8%	103%	100%	99.2%	92%	98.3%	93.3%	104%	107%
COc1cc(OC)c(C(=O)CCCN2CCCC2)c(OC)c1 [buflomedil]	0	0	0	0	0	> 10 µM	> 10 µM	> 10 µM	> 10 µM	> 10 µM	87.5%	86.3%	90.2%	88.6%	101%	90.5%	97.2%	97.3%	94.4%	99%	104%	99.3%	102%	98.8%	108%	101%	103%	96.2%	96%	106%	95.7%	99%	94.1%	97.5%	108%
CCCCNC(=O)[C@@H]1Cc2ccccc2N1C(=O)[C@@H](N)CC [butabindide]	0	0	0	0	0	> 10 µM	> 10 µM	> 10 µM	> 10 µM	> 10 µM	95.2%	99.7%	97.1%	97.1%	128%	106%	97.2%	109%	108%	106%	95.9%	98.9%	95.7%	106%	106%	89.3%	99.2%	86.1%	103%	108%	98.7%	88.4%	98.9%	91.7%	101%
C=C1/C(=C\C=C2/CCC[C@]3(C)[C@@H]([C@H](C)CCCC(C)(C)O)CC[C@@H]23)C[C@@H](O)C[C@@H]1O [calcitriol]	0	0	0	0	0	> 10 µM	> 10 µM	> 10 µM	> 10 µM	> 10 µM	100%	106%	96.7%	101%	96.8%	116%	112%	102%	92.6%	96.2%	100%	104%	95.9%	103%	92.8%	101%	104%	105%	101%	92.5%	106%	102%	104%	98.1%	97.8%
CC1/C=C/C=C/C=C/C=C/C=C/C=C/C=C/C(OC2O[C@H](C)[C@@H](O)[C@H](N)[C@@H]2O)CC(O)C(C(=O)O)C(O)CC(=O)CC(O)CC(O)CC(O)CC(=O)CCCC(=O)CC(=O)OC1C(C)CC(C)C(O)CC(=O)c1ccc(N)cc1 (stereo not given in full) [candicidin]	0	0	0	0	0.6	> 10 µM	> 10 µM	> 10 µM	> 10 µM	> 10 µM	101%	102%	102%	104%	97.5%	109%	96.4%	103%	103%	98.6%	105%	99.9%	101%	101%	96.8%	82%	90.8%	87.1%	92%	77.1%	101%	104%	96.7%	104%	77.2%
